Measured values taken from patent publication US20260199249A1, “SOLID ELACESTRANT DIHYDROCHLORIDE COMPOSITIONS, METHODS OF MAKING THE SAME, AND METHODS OF TREATMENT USING THE SAME” (BERLIN-CHEMIE AG, priority 2023, published 2026).
Entries after “also recorded” stand apart in the source; their conditions may differ. Structures can show the parent of a compound that is named as a salt.

Columns and labels:
[1] = Compressibility study (strain rate sensitivity); assay type: physicochemical
Protocol: To investigate the behavior of elacestrant dihydrochloride under mechanical stress, a compressibility study was performed. […] Thus, deformation was expected to be affected by speed. Crushing strength was rather low at slow speed and decreased as speed increased due to elastic recovery. […] The insights and recommendations from this work led to careful selection of excipients to keep tablet strength high for tablets with drug loads above 25%.

[2] = Dissolution in media of pH 1.2, 2.0 (QC), 4.5 and 6.8 with f2 analysis; assay type: physicochemical; conditions: pH 6.8 (phosphate buffer); dihydrochloride
Protocol: Dissolution profiles for Formulation 2 at the target hardness (13.3 kP and 16.4 kP for 100 mg and 400 mg tablets, respectively), were generated using testing conditions that represented the physiological range of pH 1.2 (0.1 N HCl) to pH 6.8 (phosphate buffer), as well as in the QC medium (0.01 N HCl) and at pH 4.5 (acetate buffer). The dissolution profiles under these various conditions are shown in FIGS. 11A-D (100 mg tablets) and FIGS. 12A-D (400 mg tablets).
FIGS. 13A-D compare the dissolution profiles of the elacestrant dihydrochloride 100 mg drug product used in the Pivotal BE study under 4 different dissolution conditions. […] At the highest tested pH (pH 6.8) the solubility of the drug is so low that this test condition is not a reliable method for testing the dissolution of elacestrant dihydrochloride 100 mg tablets. The curves were compared using f2 analysis. […] Although the data at pH 6.8 also indicate the two curves are similar, the percent released was so low that this comparison was not of any value.

[3] = Physicochemical properties (Log P, pKa, solubility vs. pH) for PBPK model
Description: (§1) The physicochemical and biopharmaceutical properties for elacestrant dihydrochloride and its free base, elacestrant, were defined using a combination of in silico estimates from the ADMET Predictor® module that were based on the chemical structure, along with in vitro and in vivo data obtained from the literature and internal data. Table 5 summarizes the parameter values used for the elacestrant dihydrochloride […] pharmacokinetics (PBPK) model.
The solubility vs. pH profile is solved using conventional methods known to those in the art and using the measure pKa values for elacestrant (Table 5). The pHmax for elacestrant is 4.3. These values were used to model in vitro drug product dissolution. The in vivo solubility values of elacestrant dihydrochloride are calculated as a function of the volume administered and the food volume, where relevant.

[4] = Human blood-to-plasma ratio; assay type: in vitro ADME; conditions: blood and plasma, RAD1901-111, read-out: Human blood-to-plasma ratio, initial value
Description: as §1

[5] = Human effective jejunal permeability; conditions: Caco-2, scaled from in vitro Caco2 data, read-out: Human effective jejunal permeability, initial value
Description: as §1

[6] = Exposure-response (ER) analysis for PFS; assay type: in vivo, human; conditions: non-parametric and parametric survival analysis
[7] = system: ER-positive (ER+) HER2-negative (HER2−) breast cancer cells; conditions: at concentrations inducing degradation of ERα protein; cited from earlier work
[8] = system: ER+HER2-breast cancer models; conditions: including models resistant to fulvestrant and CDK4/6 inhibitors and those harboring ESR1 mutations; cited from earlier work

Row | Structure (SMILES) | strain rate sensitivity [1] | solubility [2] | logP [3] | solubility ([3]; 0.01 N HCl) | pKa ([3]; (A)) | pKa ([3]; (B), first) | pKa ([3]; (B), second) | solubility ([3]; salt, pH = 4.3, read-out: Intrinsic solubility) | blood plasma ratio [4] | Papp [5] | pHmax [3] | solubility ([3]; free base, pH = 10, read-out: Intrinsic solubility) | exposure-response for PFS (progression-free survival) [6] | 17β-estradiol mediated cell proliferation [7] | antitumor activity [8]
1 | CCNCCc1ccc(CN(CC)c2cc(OC)ccc2[C@@H]2CCc3cc(O)ccc3C2)cc1 [Elacestrant Dihydrochloride, (6R)-6-(2-(N-(4-(2-(ethylamino)ethyl)benzyl)-N-ethylamino)-4-methoxyphenyl)-5,6,7,8-tetrahydronaphthalen-2-ol dihydrochloride] | 15.5% | significantly lower; also recorded: so low | 5.56 | feely soluble | 12 | 6.39 | 7.74 | 39.4 mg/mL | 0.701 | 32 ×10⁻⁶ cm/s |  |  |  |  | 
2 | CCNCCc1ccc(CN(CC)c2cc(OC)ccc2[C@@H]2CCc3cc(O)ccc3C2)cc1 [Elacestrant] |  |  |  |  |  |  |  |  |  |  | 4.3 | 0.000115 mg/mL | no differences in PFS across the observed range of elacestrant exposures | inhibited 17β-estradiol mediated cell proliferation | demonstrated in vitro and in vivo antitumor activity
